# Measured values from patent publication US6183953A, “Chromosomal mutagenesis in Pichia methanolica” (ZymoGenetics, Inc., priority 1997, dated 2001).
# Tested on: P. methanolica cells (strain CBS6515, UV-mutagenized)
# Experiment: Nystatin enrichment for auxotrophic mutants; titering of nystatin-treated versus control cells for colony forming units
# Assay type: cell-based, Pichia methanolica
# Conditions: 1 mg nystatin added to the remainder of a 500 ml culture in minimal broth with 5 g/L ammonium sulfate, incubated 1 hour with shaking
# Description: Large-scale mutagenesis was then carried out using a 2-second UV exposure to provide about 20% killing. Cells were plated at approximately 10^4 cells/plate onto eight YEPD plates that were supplemented with 100 mg/L each of uracil, adenine, and leucine, which were added to supplement the growth of potential auxotrophs having the cognate deficiencies. Following UV exposure the plates were wrapped in foil and incubated overnight at 30° C. The following day the colonies on the plates (^~ 10^5 total) were resuspended in water and washed once with water. An amount of cell suspension sufficient to give an OD600 of 0.1-0.2 was used to inoculate 500 ml of minimal broth made with yeast nitrogen base without amino acids or ammonia, supplemented with 1% glucose and 400 μg/L biotin. The culture was placed in a 2.8 L baffled Bell flask and shaken vigorously overnight at 30° C. The following day the cells had reached an OD600 of ^~ 1.0-2.0. The cells were pelleted and resuspended in 500 ml of minimal broth supplemented with 5 g/L ammonium sulfate. The cell suspension was placed in a 2.8 L baffled Bell flask and shaken vigorously at 30° C. for 6 hours. 50 ml of the culture was set aside in a 250-ml flask as a control, and to the remainder of the culture was added 1 mg nystatin (Sigma Chemical Co., St. Louis, Mo.) to select for auxotrophic mutants (Snow, Nature 211:206-207, 1966). […]
structure (smiles),measurement,value
C[C@@H]1[C@H](O)[C@@H](C)/C=C/C=C/CC/C=C/C=C/C=C/C=C/C(O[C@H]2O[C@H](C)[C@@H](O)[C@H](N)[C@@H]2O)CC2O[C@](O)(CC(O)C(O)CCC(O)CC(O)CC(O)CC(=O)O[C@H]1C)CC(O)C2C(=O)O (stereo partly shown) [nystatin],"decrease in the number of viable cells (colony forming units), factor versus control cells",10^4
